{
  "source": "patent US7687055B2",
  "about": "“Method of treating keratinic fibers with creatine, creatinine and/or their salts to strengthen, restructure, harden and stabilize them” (Wella AG, priority 2001, dated 2010)",
  "key": {"[1]": {"experiment": "Measurement of the improvement in combability: combing force on hair strands", "conditions": "1 wt. % creatine in shampoo of Example 2 vs same shampoo without creatine (1.43 N to 1.21 N); t-test significance level 97.5%", "excerpt": "Measurement of the Improvement in Combability The combability of hair is also an important parameter for describing hair quality. Various external influences such as certain cosmetic treatments (bleaching, dyeing permanent waving), weathering and frequent combing and brushing cause a deterioration in hair combability which is attributable to damage to the cuticula. The principle of most methods for measuring combability consists of measuring the force (combing force) required to move a comb through a hair strand under exactly defined boundary conditions. Within the framework of our own study, an automated apparatus was used for this purpose. […] The strands were then repeatedly and automatically combed one after another at a constant rate of speed, and for each combing the combing force N (newton) was recorded as a function of the combing path (strand length). The reported combing force values were finally obtained by averaging the combing forces over the combing path. The lower the combing force, the better is the combability of the hair."}, "[2]": {"experiment": "Measurement of the repair effect: tensile elongation measurement, strand tensile strength of hair", "conditions": "1 wt. % creatine in shampoo of Example 2 vs same shampoo without creatine (14.8 to 15.5 cN/tex); t-test significance level 99.9%", "method": "Measurement of the Repair Effect\nTo determine the breaking force for hair, which is an indicator of the structural integrity of the hair cortex and is thus a measure of the degree of damage, common tensile elongation measurements were performed. From each hair strand, 20 individual hairs were selected and the individual hair diameters were measured with a computer-controlled laser micrometer. The force required to break the individual hairs was then determined with a tensile elongation tester (MTT 160/160 Series Miniature Tensile Tester, serial No. 600.95.05.001, DIA-STRON Ltd, England).\nFrom these individual test results, which because of the differing hair diameters are different, the strand tensile strength (STS) was determined by calculating from the individual values the tensile strength for a hair diameter of 0.08 mm (mean diameter) taking into account the hair diameters. By taking into account the hair density, a conversion to the unit for strand tensile strength (cN/tex) was finally made. The higher the numerical value of the strand tensile strength, the lower is the hair damage."}},
  "data": [
    {"compound": "CN(CC(=O)O)C(=N)N", "note": "[creatine, M-amidinosarcosine]", "values": [
      {"measurement": "reduction of combing force (wet combability)", "setting": "[1]", "result": 15.3, "unit": "%"},
      {"measurement": "increase of strand tensile strength", "setting": "[2]", "result": 4.7, "unit": "%"}
    ]}
  ]
}
